In US7271165B2, “Rifamycin analogs and uses thereof” (priority 2003, dated 2007):
In brackets after ≈: the same amount, converted by molar mass.

Experiments:
S. pneumo. = assay: MIC assay, S. pneumo.; type: cell-based, Streptococcus pneumoniae
H. flu = type: cell-based, H. influenza; conditions: H. flu
S. aureus = assay: MIC assay, S. aureus; type: cell-based, Staphylococcus aureus
E coli = assay: MIC assay, E coli; type: cell-based
E. faecalis = assay: MIC assay, E. faecalis; type: cell-based, Enterococcus faecalis

| Compound | MIC (μg/mL) S. pneumo. (S. pneumo.) [µg/mL] | MIC (μg/mL) H. flu (H. flu) [µg/mL] | MIC (μg/mL) S. aureus (S. aureus) [µg/mL] | MIC (μg/mL) E coli (E coli) [µg/mL] | MIC (μg/mL) E. faecalis (E. faecalis) [µg/mL] |
| --- | --- | --- | --- | --- | --- |
| CCNC(=O)NC1CCN(c2cc(O)c3nc4c5c6c7c(C)c(O)c5c(=O)c(c-4oc3c2)NC(=O)/C(C)=C\C=C\[C@H](C)[C@H](O)[C@@H](C)[C@@H](O)[C@@H](C)[C@H](OC(C)=O)[C@H](C)[C@@H](OC)/C=C/O[C@@](C)(O7)C6=O)CC1 [Compound 34, 3′-hydroxy-5′-[4-ethyluryl-1-piperidinyl]benzoxazinorifamycin] | 0.001 (≈ 1.03 nM) | 0.5 (≈ 515 nM) | 0.03 (≈ 30.9 nM) | 8 (≈ 8250 nM) | 2 (≈ 2060 nM) |
| CCCS(=O)(=O)NC1CCN(c2cc(O)c3nc4c5c6c7c(C)c(O)c5c(=O)c(c-4oc3c2)NC(=O)C(C)=CC=CC(C)C(O)C(C)C(O)C(C)C(OC(C)=O)C(C)C(OC)C=COC(C)(O7)C6=O)CC1 (stereo not shown) [Compound 35] | 0.00025 (≈ 0.249 nM) | 0.5 (≈ 497 nM) | 0.015 (≈ 14.9 nM) | 8 (≈ 7960 nM) | 4 (≈ 3980 nM) |
| CCCC(=O)NC1CCN(c2cc(O)c3nc4c5c6c7c(C)c(O)c5c(=O)c(c-4oc3c2)NC(=O)C(C)=CC=CC(C)C(O)C(C)C(O)C(C)C(O)C(C)C(OC)C=COC(C)(O7)C6=O)CC1 (stereo not shown) [Compound 36, 25-O-deacetyl-3′-hydroxy-5′-[4-butanamide-1-piperidinyl]benzoxazinorifamycin] | 0.00003 (≈ 0.0324 nM) | 0.25 (≈ 270 nM) | 0.004 (≈ 4.31 nM) | >8 | 2 (≈ 2160 nM) |
| CCNC(=O)NC1CCN(c2cc(O)c3nc4c5c6c7c(C)c(O)c5c(=O)c(c-4oc3c2)NC(=O)C(C)=CC=CC(C)C(O)C(C)C(O)C(C)C(O)C(C)C(OC)C=COC(C)(O7)C6=O)CC1 (stereo not shown) [Compound 37, 25-O-deacetyl-3′-hydroxy-5′-[4-ethyluryl-1-piperidinyl]benzoxazinorifamycin] | 0.004 (≈ 4.31 nM) | 0.25 (≈ 269 nM) | 0.03 (≈ 32.3 nM) | >8 | 2 (≈ 2160 nM) |
| COC1C=COC2(C)Oc3c(C)c(O)c4c(=O)c(c5oc6cc(N7CCC(NS(=O)(=O)C(F)(F)F)CC7)cc(O)c6nc-5c4c3C2=O)NC(=O)C(C)=CC=CC(C)C(O)C(C)C(O)C(C)C(O)C1C (stereo not shown) [Compound 38] | 0.015 (≈ 15.2 nM) | 0.25 (≈ 253 nM) | 0.12 (≈ 121 nM) | >8 | 8 (≈ 8090 nM) |
| COC1C=COC2(C)Oc3c(C)c(O)c4c(=O)c(c5oc6cc(N7CCC(N)CC7)cc(O)c6nc-5c4c3C2=O)NC(=O)C(C)=CC=CC(C)C(O)C(C)C(O)C(C)C(O)C1C (stereo not shown) [Compound 39, 25-O-deacetyl-3′-hydroxy-5′-[4-amino-1-piperidinyl]benzoxazinorifamycin] | 0.001 (≈ 1.17 nM) | 0.25 (≈ 292 nM) | 0.03 (≈ 35 nM) | >8 | 2 (≈ 2330 nM) |
| COCCOC(=O)NC1CCN(c2cc(O)c3nc4c5c6c7c(C)c(O)c5c(=O)c(c-4oc3c2)NC(=O)C(C)=CC=CC(C)C(O)C(C)C(O)C(C)C(OC(C)=O)C(C)C(OC)C=COC(C)(O7)C6=O)CC1 (stereo not shown) [Compound 41, 3′-hydroxy-5′-[4-methoxyethylcarbamyl-1-piperidinyl]benzoxazinorifamycin] | 0.0005 (≈ 0.499 nM) | 2 (≈ 2000 nM) | 0.25 (≈ 250 nM) | >8 | >8 |
| COC1C=COC2(C)Oc3c(C)c(O)c4c(=O)c(c5oc6cc(N7CCC(NC(C)=O)CC7)cc(O)c6nc-5c4c3C2=O)NC(=O)C(C)=CC=CC(C)C(O)C(C)C(O)C(C)C(O)C1C (stereo not shown) [Compound 43, 25-O-deacetyl-3′-hydroxy-5′-[4-acetamide-1-piperidinyl]benzoxazinorifamycin] | 0.002 (≈ 2.22 nM) | 0.5 (≈ 556 nM) | 0.03 (≈ 33.4 nM) | >8 | 2 (≈ 2220 nM) |
| COC1C=COC2(C)Oc3c(C)c(O)c4c(=O)c(c5oc6cc(N7CCC(NC(C)=O)CC7)cc(O)c6nc-5c4c3C2=O)NC(=O)C(C)=CC=CC(C)C(O)C(C)C(O)C(C)C(OC(C)=O)C1C (stereo not shown) [Compound 44] | 0.008 (≈ 8.5 nM) | 0.25 (≈ 266 nM) | 0.06 (≈ 63.8 nM) | >8 | 2 (≈ 2130 nM) |
| COC1C=COC2(C)Oc3c(C)c(O)c4c(=O)c(c5oc6cc(N7CCC(NC(=O)SC)CC7)cc(O)c6nc-5c4c3C2=O)NC(=O)C(C)=CC=CC(C)C(O)C(C)C(O)C(C)C(OC(C)=O)C1C (stereo not shown) [Compound 45, 3′-hydroxy-5′-[4-S-methylthiocarbamyl-1-piperidinyl]benzoxazinorifamycin] | 0.001 (≈ 1.03 nM) | 0.5 (≈ 514 nM) | 0.015 (≈ 15.4 nM) | 8 (≈ 8220 nM) | 4 (≈ 4110 nM) |
| COC1C=COC2(C)Oc3c(C)c(O)c4c(=O)c(c5oc6cc(N7CC8CCCN(C(C)=O)C8C7)cc(O)c6nc-5c4c3C2=O)NC(=O)C(C)=CC=CC(C)C(O)C(C)C(O)C(C)C(O)C1C [Compound 46, 25-O-deacetyl-3′-hydroxy-5′-[1-acetyl-(4aR,7aR)-octahydro-6H-pyrrolo[3,4-b]pyridin-6-yl]benzoxazinorifamycin] | 0.00006 (≈ 0.0649 nM) | 0.5 (≈ 541 nM) | 0.004 (≈ 4.32 nM) | >8 | 2 (≈ 2160 nM) |
| COC1C=COC2(C)Oc3c(C)c(O)c4c(=O)c(c5oc6cc(N7CC8CCCN(C(C)=O)C8C7)cc(O)c6nc-5c4c3C2=O)NC(=O)C(C)=CC=CC(C)C(O)C(C)C(O)C(C)C(OC(C)=O)C1C [Compound 47, 3′-hydroxy-5′-[1-acetyl-(4aR,7aR)-octahydro-6H-pyrrolo[3,4-b]pyridin-6-yl]benzoxazinorifamycin] | 0.002 (≈ 2.07 nM) | 0.25 (≈ 259 nM) | 0.008 (≈ 8.27 nM) | >8 | 1 (≈ 1030 nM) |
| COC1C=COC2(C)Oc3c(C)c(O)c4c(=O)c(c5oc6cc(N7CCC(NC(=O)OC(C)(C)C)CC7)cc(O)c6nc-5c4c3C2=O)NC(=O)C(C)=CC=CC(C)C(O)C(C)C(O)C(C)C(OC(C)=O)C1C (stereo not shown) [Compound 48] | 0.00025 (≈ 0.25 nM) | 1 (≈ 1000 nM) | 0.008 (≈ 8.01 nM) | >8 | 2 (≈ 2000 nM) |
| COC1C=COC2(C)Oc3c(C)c(O)c4c(=O)c(c5oc6cc(N7CCC(NC(=O)N8CCC(NC(=O)SC)CC8)CC7)cc(O)c6nc-5c4c3C2=O)NC(=O)C(C)=CC=CC(C)C(O)C(C)C(O)C(C)C(OC(C)=O)C1C (stereo not shown) [Compound 49, 3′-hydroxy-5′-[4-(4-(S-methylthiocarbamyl)-1-piperidinylcarbonyl)amino-1-piperidinyl]benzoxazinorifamycin] | 0.0005 (≈ 0.455 nM) | 2 (≈ 1820 nM) | 0.06 (≈ 54.6 nM) | >8 | 8 (≈ 7280 nM) |
